Assay results: ChEMBL document CHEMBL5370688, “Development of HC-258, a Covalent Acrylamide TEAD Inhibitor That Reduces Gene Expression and Cell Migration” (ACS Med Chem Lett, 2023)
Calls of active or inactive are those of the source. No cut-off for these calls is given here.

Key:
[1] = target: Transcriptional enhancer factor TEF-3 (Homo sapiens) (UniProt Q15561); experiment: Displacement of bodipy-PA from TEAD4 (unknown origin) measured after 30 mins by FP assay relative to control
[2] = target: Transcriptional enhancer factor TEF-3 (Homo sapiens) (UniProt Q15561); experiment: Displacement of bodipy-PA from TEAD4 (unknown origin) measured after 30 mins by FP assay
[3] = target: Transcriptional enhancer factor TEF-3 (Homo sapiens) (UniProt Q15561); experiment: Binding affinity to TEAD4 (unknown origin) assessed as covalent adduct formation at 0.3 mM incubated for 2 hrs by Agilent LC/MSD Time-of-Flight Mass Spectrometric analysis
MDA-MB-231 [4] = experiment: Inhibition of TEAD in human MDA-MB-231 cells assessed as reduction in CTGF gene expression level at 10 uM measured after 48 hrs by SYBR green staining based RT-qPCR analysis; format: cell-based
MDA-MB-231 [5] = experiment: Inhibition of TEAD in human MDA-MB-231 cells assessed as reduction in Cyr61 gene expression level at 10 uM measured after 48 hrs by SYBR green staining based RT-qPCR analysis; format: cell-based
MDA-MB-231 [6] = experiment: Inhibition of TEAD in human MDA-MB-231 cells assessed as reduction in NF2 gene expression level at 10 uM measured after 48 hrs by SYBR green staining based RT-qPCR analysis; format: cell-based
MDA-MB-231 [7] = experiment: Cytotoxicity against human MDA-MB-231 cells at 10 uM; format: functional, cell-based
MDA-MB-231 [8] = experiment: Inhibition of TEAD in human MDA-MB-231 cells assessed as reduction in AXL gene expression level at 10 uM measured after 48 hrs by SYBR green staining based RT-qPCR analysis; format: cell-based
[9] = target: Transcriptional enhancer factor TEF-3 (Homo sapiens) (UniProt Q15561); experiment: Binding affinity to TEAD4 (unknown origin) assessed as partial covalent adduct formation at 0.3 mM incubated for 2 hrs by Agilent LC/MSD Time-of-Flight Mass Spectrometric analysis
MDA-MB-231 [10] = experiment: Inhibition of cell migration in human MDA-MB-231 cells at 10 uM incubated for 48 hrs by xCELLigence RTCA system analysis; format: functional, cell-based
[11] = system: YAP1-TEAD1 (Homo sapiens); experiment: Inhibition of C-terminal NanoLuc-tagged TEAD1 (unknown origin)/C-terminal Halo-Tagged YAP1 (unknown origin) protein-protein interaction transfected in HEK293T cells at 10 uM using Nano-Glo as substrate pre incubated for 4 hrs followed by substrate addition and measured within 10 mins by NanoBRET …; settings: time 250.0 min
[12] = target: Transcriptional enhancer factor TEF-3 (Homo sapiens) (UniProt Q15561); experiment: Binding affinity to TEAD4 (unknown origin) assessed as change in aggregation temperature at 25 uM by DSLS thermal shift assay

Transcriptional enhancer factor TEF-3 (Homo sapiens), sequence (Q15561 whole entry): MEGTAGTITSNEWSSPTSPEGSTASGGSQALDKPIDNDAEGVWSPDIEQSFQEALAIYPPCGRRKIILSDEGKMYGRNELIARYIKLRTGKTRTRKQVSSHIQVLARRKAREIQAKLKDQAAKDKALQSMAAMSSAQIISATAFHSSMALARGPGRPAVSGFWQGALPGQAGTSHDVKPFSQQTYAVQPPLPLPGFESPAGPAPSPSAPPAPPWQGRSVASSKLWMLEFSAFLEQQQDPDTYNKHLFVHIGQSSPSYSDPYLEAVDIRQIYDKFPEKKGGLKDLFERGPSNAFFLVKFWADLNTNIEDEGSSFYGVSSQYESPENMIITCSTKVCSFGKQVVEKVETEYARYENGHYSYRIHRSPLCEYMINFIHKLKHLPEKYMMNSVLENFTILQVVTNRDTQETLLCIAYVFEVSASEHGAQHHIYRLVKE

Compound | inhibition [1] [%] | K [2] [µM] | Activity [3] | inhibition (MDA-MB-231 [4]) | inhibition (MDA-MB-231 [5]) | inhibition (MDA-MB-231 [6]) | Activity (MDA-MB-231 [7]) | inhibition (MDA-MB-231 [8]) | Activity [9] | inhibition (MDA-MB-231 [10]) | inhibition [11] | deltaT [12] [°C]
CCCCCCc1cccc(Nc2ccccc2NC(=O)CCl)c1 | 80 | 2.3 | Active | – | – | – | – | – | – | – | – | –
CCCCCCc1cccc(Nc2cccc(NC(=O)C3CC3)c2)c1 | – | – | inactive | – | – | – | – | – | – | – | – | –
CCCCCCc1cccc(Nc2ccccc2NC(=O)C=C(C)C)c1 | – | – | inactive | – | – | – | – | – | – | – | – | –
C=CC(=O)Nc1cccc(Nc2cccc(CCCCCC)c2)c1 | – | 1.3 | Active | Active | Active | Active | Active | Active | – | – | – | –
CCCCCCc1cccc(Nc2cccc(NC(=O)CCl)c2)c1 | – | 1 | Active | Active | Active | inactive | inactive | inactive | – | – | – | –
C=CC(=O)Nc1ccccc1Nc1cccc(CCCCCC)c1 | – | 2.7 | – | Active | Active | Active | Active | Active | Active | – | – | –
CCCCCCc1cccc(Nc2cccc(NC(=O)C=C(C)C)c2)c1 | – | – | inactive | – | – | – | – | – | – | – | – | –
O=C(O)c1ccccc1Nc1cccc(C(F)(F)F)c1 | – | – | – | – | – | – | – | – | – | inactive | – | –
CCCCCOc1cccc(Nc2cccc(NC(=O)CCl)c2)c1 | – | 3.1 | Active | – | – | – | inactive | – | – | – | – | –
C=CC(=O)Nc1ccccc1Nc1cccc(OCCCCC)c1 | – | > 20 | – | Active | Active | Active | inactive | Active | Active | Active | – | –
CCCCCOc1cccc(Nc2cccc(NC(C)=O)c2)c1 | – | > 25 | inactive | inactive | inactive | inactive | inactive | inactive | – | inactive | inactive | 2.5
C=CC(=O)Nc1cccc(Nc2cccc(OCCCCC)c2)c1 | – | 3.6 | Active | Active | Active | Active | inactive | Active | – | Active | inactive | –
